Values joined by “and” are separate entries in the source; they are usually repeats but may differ in a detail not shown here. Identical values can stand only once.
Tests used:
androgen receptor (AR) = details: tumoural DHT from 1 nM up to 10 nM, Hickey 2021; cited from earlier work
human mTOR = test: Western blot of mTOR in breast cancer explants treated with DHT; assay type: cell-based; details: for mTOR Western blot ratio to beta-Actin, average: average of 3 patients; for mTOR Western blot ratio to beta-Actin, average / mTOR Western blot ratio to beta-Actin: 5 nM anastrozole, 24 h; for mTOR Western blot ratio to beta-Actin: individual patient
Protocol: (§1) To evaluate the effect of DHT on breast cancer tissue, 3 primary tumours were examined in the presence of a low anastrozole level of 5 nM employing a modification of the method described by Jankovic-Karasoulos T. et al., 2008.
(§2) The 3 explant invasive breast carcinomas were examined for expression of mTOR and c-Myc and response to exposure to DHT by Western blotting. […] The band density was measured by densitometry, using Image Master VDS and Image Quant Analysis Software (Amersham Pharmacia Biotech, Hong Kong). The relative protein levels of mTOR or MYC and b-actin in the original total protein lysate from the breast preparations were obtained. mTOR or MYC protein expression was normalized to beta-actin protein expression. Immunizing host antibodies were produced with a synthetic peptide derived from the sequence of human mTOR or MYC, purified by peptide affinity chromatography and confirmed using control peptides. The results of the Western blot analysis for mTOR or MYC proteins in the 3 explant samples at baseline and after 24 hours of culture are shown in Table 3 and Table 4 for mTOR or MYC respectively. Cell lysates were immunoblotted with antibodies to mTOR or MYC. The experiment was performed twice with similar results. Data are expressed relative to beta-actin.

human MYC = test: Western blot of MYC in breast cancer explants treated with DHT; assay type: cell-based; details: for MYC Western blot ratio to beta-Actin / MYC Western blot ratio to beta-Actin, average: 24 h
Protocol: as §1, §2

[1] = Single-dose pharmacokinetics of T+Ai pellet implant (80 mg testosterone + 4 mg anastrozole, subcutaneous); details: for concentration at 1 h: 1 h post-dose; for concentration at 2 h: 2 h post-dose; for concentration at 4 h: 4 h post-dose; for concentration at 8 h: 8 h post-dose; for concentration at 12 h: 12 h post-dose; for concentration at 24 h: 24 h post-dose; for concentration at 72 h: 72 h post-dose; for concentration at 1680 h: 1680 h post-dose; for concentration at 2016 h: 2016 h post-dose
Protocol: The premenopausal women were aged between 35 and 55 years of age with a BMI range of 20-30 kg/m^2. […] The implant was intended to be left in situ and was expected to be almost completely absorbed within three months following insertion.
A total of 11 subjects were dosed with the implant and included in the safety analysis set. All 11 subjects were included in the pharmacokinetics (PK) analysis set.
(NB: the sample collection time point at 6 hours post-dose was added for the third and subsequent subject and so serum measurements were not determined for the first two subjects as noted below).
Patients seeking treatment with the T+Ai for reduction in high MBD were eligible for the study. Following successful screening, subjects attended the Wellend Health Clinic for dosing. The trial was designed to dose all subjects while in the luteal phase of their menstrual cycle to avoid the highly changing hormonal environment of the follicular phase. Following insertion of the implant, PK blood sampling was carried out for a duration of three months (see below). Briefly, samples were taken repeatedly on the day of dosing, daily during the first week, weekly for the next four weeks and every second week during the last eight weeks of a total sampling period of three months.
The sampling schedule was revised with the addition of one blood sample (at 6 hours post-dose as discussed above), and no adjustment of the timing of existing time points was made. The duration of sampling was not extended.
Following dosing on Day 1, blood samples were taken pre-dose (within one hour of dosing) and at 1, 2, 4, 6, 8 and 12 hours. Participants returned for a blood sample to be taken at 9 am in the morning on Days 2, 3, 4, 5, 8, 15, 22, 29, 43, 57, 71 and 85.

[2] = test system: endogenous AR pathways / ER-mediated transcriptional activity; details: human explant tissue and breast cancer cell lines; cited from earlier work
5α-reductase = details: increasing DHT in the breast, McNamara 2014; cited from earlier work
PCa cells = details: cited from earlier work
AR/GATA3 = details: Hosseinzadeh 2024; cited from earlier work
aromatase = details: increasing DHT in the breast, Perel; cited from earlier work
breast = details: injected prior to breast cancer surgery; cited from earlier work
breast tissue = details: high dose androgen (testosterone), Raths 2023; cited from earlier work
CRPC = details: with a CDK4/6 inhibitor, Han 2022; cited from earlier work
[3] = on the basis of the present results
[4] = human, in vivo, sc, 80 mg, Measured serum testosterone, GeoMean, geometric mean
[5] = human, in vivo, sc, 80 mg, Measured serum testosterone, mean
[6] = human, in vivo, sc, 80 mg, Measured serum testosterone, median

C[C@]12CCC(=O)C[C@@H]1CC[C@@H]1[C@@H]2CC[C@]2(C)[C@@H](O)CC[C@@H]12 [DHT, 5α-dihydrotestosterone]
AR tumour suppressor induction (androgen receptor (AR)): can induce androgen receptor (AR) to become a tumour suppressor of estrogen receptor (ER) positive breast cancer
mTOR expression in words (human mTOR; 0.1 nM DHT): markedly elevated
mTOR Western blot ratio to beta-Actin, average (human mTOR; 0.1 nM DHT): 1.01
mTOR Western blot ratio to beta-Actin (human mTOR; 0.1 nM DHT): 0.81 and 1.01 and 1.23
mTOR expression in words (human mTOR; 1 nM DHT): barely discernable
mTOR Western blot ratio to beta-Actin, average (human mTOR; 1 nM DHT): 0.04
mTOR Western blot ratio to beta-Actin (human mTOR; 1 nM DHT): 0.04 and 0.02 and 0.06
mTOR expression in words (human mTOR; 10 nM DHT): essentially not detected
mTOR Western blot ratio to beta-Actin, average (human mTOR; 10 nM DHT): 0.04
mTOR Western blot ratio to beta-Actin (human mTOR; 10 nM DHT): 0.03 and 0.05 and 0.04
DHT concentration required to inhibit induction of mTOR activity (human mTOR; [3]): at least 1 nM
Myc expression in words (human MYC; 0.1 nM DHT): markedly elevated
suppression of c-Myc (human MYC; 0.1 nM DHT): unable to suppress c-Myc
MYC Western blot ratio to beta-Actin (human MYC; 0.1 nM DHT, individual patient, 5 nM anastrozole): 1.01 and 1.23
Myc expression in words (human MYC; 1 nM DHT): barely discernable
MYC Western blot ratio to beta-Actin (human MYC; 1 nM DHT, individual patient, 5 nM anastrozole): 0.02 and 0.06
Myc expression in words (human MYC; 10 nM DHT): essentially not detected
MYC Western blot ratio to beta-Actin (human MYC; 10 nM DHT, individual patient, 5 nM anastrozole): 0.05 and 0.04
MYC Western blot ratio to beta-Actin (human MYC; 0.0001 µM): 0.39
MYC Western blot ratio to beta-Actin, average (human MYC; 0.0001 µM): 1.01
MYC Western blot ratio to beta-Actin (human MYC; 0.001 µM): 0.04
MYC Western blot ratio to beta-Actin, average (human MYC; 0.001 µM): 0.04
MYC Western blot ratio to beta-Actin (human MYC; 0.01 µM): 0.03
MYC Western blot ratio to beta-Actin, average (human MYC; 0.01 µM): 0.04
suppression of c-Myc (human MYC; intra-tumoural DHT from 1 to 10 nM): results in suppression of c-Myc
DHT concentration required for suppression of cMyc (human MYC; [3]): at least 1 nM
serum DHT ([1]; most samples): not measurable in most samples
ER-mediated transcriptional activity [2]: can activate endogenous AR pathways to inhibit ER-mediated transcriptional activity
5α-reductase in breast tissue (5α-reductase): up regulation of 5α-reductase
c-Myc expression associated with AR dimer (PCa cells; elevated DHT levels): reduction in c-Myc expression
mTOR activity associated with AR monomer (PCa cells; low level DHT): elevated mTOR activity
AR/GATA3 binding (AR/GATA3): induces AR/GATA3 binding
aromatase in breast tissue (aromatase): down regulation of aromatase

C[C@]12CCC(=O)C[C@@H]1CC[C@@H]1[C@@H]2CC[C@]2(C)[C@@H](O)CC[C@@H]12 [radioactive DHT]
accumulation of radioactive DHT (breast): initially accumulated in the fat of the breast then strongly accumulated in the malignancy

C[C@]12CC[C@H]3[C@@H](CCC4=CC(=O)CC[C@@]43C)[C@@H]1CC[C@@H]2O [Testosterone, testosterone]
breast ductal structures (breast tissue): breast ductal structures shrunk
average serum testosterone concentration at 12 weeks ([1]; 12 weeks post-dose, 120960 min): 0.8 ng/mL
increase in serum testosterone compared with baseline ([1]; all subjects, 12 weeks): sustained in all subjects at 12 weeks
average serum testosterone at baseline ([1]; baseline, before implant): 0.2 ng/mL
Measured serum testosterone, GeoMean ([1]; geometric mean, pre-dose): 0.19 ng/mL
Tmax ([1]; human, in vivo, sc, 80 mg): 6 to 12 h
concentration at 1 h [1, 4]: 0.49 ng/mL
concentration at 2 h [1, 4]: 0.6 ng/mL
concentration at 4 h [1, 4]: 0.94 ng/mL
concentration at 6 h ([1]; human, in vivo, sc, 80 mg, Measured serum testosterone, GeoMean, geometric mean, 6 h post-dose): 2.53 ng/mL
concentration at 8 h [1, 4]: 3.29 ng/mL
concentration at 12 h [1, 4]: 3.36 ng/mL
concentration at 24 h [1, 4]: 2.39 ng/mL
concentration at 72 h [1, 4]: 1.63 ng/mL
concentration at 1680 h [1, 4]: 0.99 ng/mL
concentration at 1680 h ([1]; human, in vivo, sc, 80 mg, Measured serum testosterone, individual subject): 0.791 ng/mL
concentration at 1 h [1, 5]: 0.55 ng/mL
concentration at 2 h [1, 5]: 0.73 ng/mL
concentration at 4 h [1, 5]: 1.43 ng/mL
concentration at 8 h [1, 5]: 3.55 ng/mL
concentration at 12 h [1, 5]: 3.43 ng/mL
concentration at 24 h [1, 5]: 2.45 ng/mL
concentration at 48 h ([1]; human, in vivo, sc, 80 mg, Measured serum testosterone, mean, 48 h post-dose): 1.83 ng/mL
concentration at 72 h [1, 5]: 1.73 ng/mL
concentration at 168 h ([1]; human, in vivo, sc, 80 mg, Measured serum testosterone, mean, 168 h post-dose): 1.53 ng/mL
concentration at 504 h ([1]; human, in vivo, sc, 80 mg, Measured serum testosterone, mean, 504 h post-dose): 2.26 ng/mL
concentration at 1344 h ([1]; human, in vivo, sc, 80 mg, Measured serum testosterone, mean, 1344 h post-dose): 1.25 ng/mL
concentration at 1680 h [1, 5]: 1 ng/mL
concentration at 2016 h [1, 5]: 0.83 ng/mL
concentration at 1 h [1, 6]: 0.47 ng/mL
concentration at 2 h [1, 6]: 0.51 ng/mL
concentration at 4 h [1, 6]: 0.92 ng/mL
concentration at 1008 h ([1]; human, in vivo, sc, 80 mg, Measured serum testosterone, median, 1008 h post-dose): 1.4 ng/mL
concentration at 1680 h [1, 6]: 1 ng/mL
concentration at 2016 h [1, 6]: 0.85 ng/mL
Measured serum testosterone, mean ([1]; mean, pre-dose): 0.21 ng/mL
Measured serum testosterone, median ([1]; median, pre-dose): 0.19 ng/mL
average Cmax, serum testosterone ([1]; serum): 4.1 ng/mL
median Tmax for serum testosterone ([1]; serum, post-dose): 8 h
efficacy of high-testosterone treatment with CDK4/6 inhibitor (CRPC): enhanced by a CDK4/6 inhibitor
